Reference: article PMC3939009, “Thrombin inhibitory activity of some polyphenolic compounds” (Medicinal Chemistry Research, 2013)
Like-named read-outs stand apart in the source and are kept apart here.

Tests used:
human thrombin [1] = target: T1, human thrombin (Homo sapiens, UniProt P00734); test: Analysis of thrombin inhibition parameters (Lineweaver–Burk curves); format: biochemical; parameters: Thrombin, also known as an active plasma coagulation factor II; purchased Sigma-Aldrich Chemical Co. (St. Louis, MO, USA) T7009
Method: Absorbance was monitored every 12 s for 10 min in a 96-well microplate reader. The velocity of reaction was expressed as the increase in product (pNA) over time (∆ μmol/min) using a computer program Mikcroplate Manager® 8 and the extinction coefficient of p-nitroaniline. […] Then, the Lineweaver–Burk ([1934]) curves for thrombin in the presence and in the absence of polyphenol compounds were plotted. The Lineweaver–Burk equation, which is a transformation of the Michaelis–Menten model, looks as follows: 1/V=Km/Vmax·1/[S]+1/Vmax

human thrombin [2] = target: T1, human thrombin; test: Amidolytic activity of thrombin (hydrolysis of chromogenic substrate D-Phe-Pip-Arg-pNA); format: biochemical; parameters: Thrombin, also known as an active plasma coagulation factor II; purchased Sigma-Aldrich Chemical Co. (St. Louis, MO, USA) T7009; host or cells: purified from human plasma; details: at 375 μM substrate concentration; compounds 0.1–1,000 μM, preincubation 10 min 37 °C; read-out: IC50, amidolytic activity of human thrombin
Method: (§1) All tested compounds were dissolved in 50 % DMSO to the initial concentration of 10 mM; other solutions of compounds were also prepared in 50 % DMSO (prepared in 50 mM TBS, pH 7.4). The final concentration of DMSO in thrombin samples was 5 %. To prepare thrombin control samples, the same volume of solvent (50 % DMSO prepared in 50 mM TBS, pH 7.4) was added as in the case of the compound volume and warmed for 10 min to 37 °C.
To each reaction well, 40 μl of 3 mM chromogenic substrate was added. To initiate the chromogenic reaction, 280 μl of control thrombin (without tested compounds) or thrombin after preincubation with a polyphenolic compound to every reaction well in the same moment was added. The absorbance value was monitored every 12 s for 10 min. The maximal velocity of the reaction (V max, Δm OD/min) for each absorbance curve was determined. IC50 value (parameter) for every polyphenolic compound from inhibition curves was estimated.

human thrombin [3] = target: T1, human thrombin; test: SDS-PAGE analysis of thrombin-induced cross-linked fibrin formation; format: biochemical; parameters: Thrombin, also known as an active plasma coagulation factor II; purchased Sigma-Aldrich Chemical Co. (St. Louis, MO, USA) T7009; host or cells: purified from human plasma
Method: as §1, with “In these preparations, to nine volumes of thrombin one volume of polyphenolic compounds was added (final thrombin concentration was 15.8 nM). All” for “All”
The reactions incubated at 37 °C were stopped after 5, 15 and 30 min by adding 150 μl of lysis buffer (0.125 M Tris/HCl, 4 % SDS, 8 M urea, 10 % β-mercaptoethanol, pH 6.8). Samples were subjected to SDS-PAGE (polyacrylamide concentration—7.5 %) using Mini-Protean Electrophoresis Cell (Bio-Rad, Hercules, CA). Proteins were stained with Coomassie Brilliant Blue R250 (CBB).

human thrombin [4] = target: T1, human thrombin; test: BIAcore (SPR) analysis of binding to immobilized thrombin; parameters: Thrombin, also known as an active plasma coagulation factor II; purchased Sigma-Aldrich Chemical Co. (St. Louis, MO, USA) T7009
Method: The biosensor assays were performed using the BIAcore 1000 biosensor system. All biosensor analyses were performed with a phosphate-buffered saline (PBS), pH 7.4, as a running buffer. […] The immobilization of thrombin on a biosensor carboxylmethyl dextran surface was performed according to the BIA applications Handbook (BIAcore, [1994]). The process of protein immobilization was performed on a sensor chip CM5 surface by the positively charged functional groups of protein amino acids. The immobilization process consisted of four steps: preconcentration, activation, ligand immobilization and deactivation of the residual NHS esters. […] The temperature during the whole experiment was also constant and was set to 25.0 °C. […] Each of these solutions (10 μl) was injected into an empty sensor chip channel. […] The amount of injected activation mixture was modified, to regulate the amount of immobilized ligand. […] The conditions of the latter experiments were established by numerous pre-tests. The assessed parameters included: the buffer flow rate, the volume of analyte injection, the concentration of analytes, types and concentration of regenerators. […] For each injection of analyte solution, the volume used was 100 μl. After injection of analyte was completed, the dissociation step occurred and the level of the interaction ligand-analyte was measured. During dissociation, the particles non-covalently bound to the ligand were washed out from the working channel. […] To do these calculations, the formulas presented below were used: the association rate […]]; the dissociation rate -d[AB]/dt=kd·[AB]; the equilibrium constants: KA=[AB]/[A]·[B]=ka/kd KD=[A]·[B]/[AB]=kd/ka.

[5] = parameters: method as in Mozzicafreddo et al. ([2006]); details: ref Mozzicafreddo et al. ([2006]); cited from earlier work

SMILES: O=c1c(O)c(-c2ccc(O)c(O)c2)oc2cc(O)cc(O)c12 [Quercetin, quercetin]
- k cat (human thrombin [1]; compound at IC50 concentration, k cat = V max/E 0, control 29.1): 27.8 s⁻¹
- Type of inhibition (human thrombin [1]; from Lineweaver–Burk curves): competitive inhibitors
- V max of chromogenic substrate hydrolysis by thrombin (human thrombin [1]; thrombin incubated with compound at IC50 concentration, control 30.7): 29.4 10^−6 mol/min
- K m of chromogenic substrate hydrolysis by thrombin (human thrombin [1]; thrombin incubated with compound at IC50 concentration, control 158.7): 633.8 10^−6 M
- IC50 (human thrombin [2]): 1500 nM
- Effect on formation of γ–γ chains and α-polymers (human thrombin [3]; at IC50 concentration of amidolytic inhibition: cyanidin […], quercetin 1.5 μM): also inhibited the formation of γ–γ chains and α-polymers
- Effect on formation of γ–γ chains and α-polymers (human thrombin [3]; ten times IC50: cyanidin […], quercetin 15 μM, silybin 250 μM): significantly inhibited the formation of γ–γ chains and α-polymers
- K A, equilibrium association constant (human thrombin [4]): 2.59 × 10^7 M^–1
- K A, equilibrium association constant (human thrombin [4]; 5 sensorgrams, 50 to 1,000 μM): 2.59e+07 M⁻¹
- Kd (human thrombin [4]; 5 sensorgrams, 50 to 1,000 μM, read-out: K D, equilibrium dissociation constant): 38.7 nM
- kon (human thrombin [4]; 5 sensorgrams, 50 to 1,000 μM, read-out: k a, association rate): 43.2 M⁻¹ s⁻¹
- koff (human thrombin [4]; 5 sensorgrams, 50 to 1,000 μM, read-out: k d, dissociation rate): 1.67e-06 s⁻¹
- Response (RU) (human thrombin [4]; analyte 1,000 μM, thrombin immobilized on CM5 chip): 1,882 RU
- Concentration with anti-clotting effect (prolonged thrombin time) [5]: ≥ 100 µM
